# Laboratory results: patent publication US5925369A, “Bis alkanoyl esters of carnitine having bactericidal, fungicidal and antiprotozoal activity” (priority 1996, dated 1999)
# Key:
# bacteria and fungi = conditions: bactericidal (EP-A-0 552 137) and fungicidal (EP-A-0 552 138); cited from earlier work
# Eubacterium lentum = assay: MIC on anaerobic bacteria; type: cell-based; conditions: Eggerthella lenta; Eubacterium lentum IDI 3502, anaerobic, Gram positive clinical isolate (suppurative wound); read-out: Minimal Inhibitory Concentration
# Experimental: (§1) Bacteria from cultures in […].) medium on Petri dishes, grown overnight at 35° C. in an anaerobic jar, were resuspended in Brucella broth. The suspensions were adjusted to 1.0×10^8 cells/ml and distributed (0.2 ml/well) in microtiter plates (96-well U-bottomed plate). At the same time, 0.3 log dilutions of the substances are mixed with W. C. agar medium in four-sectioned Petri dishes, which are then seeded with the bacterial suspension by means of a multipoint inoculator (1.0×10^5 cells/spot). The plates are then incubated at 35° C. for 48 hours in an anaerobic jar) (See J. E. ROSENBLATT, Antimicrobial susceptibility testing of anaerobes, in Antibiotics in laboratory medicine. V. LORIAN Ed., II edition, 6, 159-180, Williams & Wilkins, Baltimora, Md 21202 U.S.A.).
# Bacteroides fragilis = assay: MIC on anaerobic bacteria; type: cell-based; conditions: ATCC25285; Bacteroides fragilis ATCC 25285, anaerobic, Gram negative, lab collection; read-out: Minimal Inhibitory Concentration
# Experimental: as §1
# Propionibacterium acnes = assay: MIC on anaerobic bacteria; type: cell-based; conditions: Cutibacterium acnes; Propionibacterium acnes IDI 3482, anaerobic, Gram positive clinical isolate (suppurative acne); read-out: Minimal Inhibitory Concentration
# Experimental: as §1
# yeast-like strains = assay: MIC on yeast-like strains (all lab collection strains); type: cell-based; conditions: 5 strains
# Experimental: Overnight yeast cultures in Sabouraud broth are appropriately washed and diluted in Yeast Nitrogen Base supplemented with asparagine and glucose (Y.N.B.s.) to yield approximately 5.0×10^4 CFU/ml in microtiter wells. Substance dilutions (0.3 log) in Y.N.B.s. are added to these suspensions to a final concentration range from 0.19 to 100 mcg/ml. Microtiter plates are then incubated at 35° C. for 24-48 hours (See PFALLER M., RINALDI M. G., […] J. M., BARTLETT M. S., BODY B. A., ESPINEL-INGROFF A., FROMTLING R. A., HALL G. S., HUGHES G. E., ODDS F. C., SUGAR A. M., Collaborative investigator of variables in susceptibility testing of yeasts, Ant. Agent and Chemoth., 34, 9:1648-1656, 1990. COOK R., McINTYRE K. A., […] J. M., Effects of incubation temperature, inoculum size, and medium on agreement of macro and microdilution broth susceptibility test, results for yeasts, Ant. Agent and Chemoth., 34, 8:1542-1545, 1990. […] E., PAETZNICK V., BODEY G. P., Fluconazole susceptibility testing of "Candida albicans" microtiter method that is indipendent of inoculum size, temperature, and time of reaching, Ant. Agent and Chemoth., 35, 8:1641-1646, 1991).
# Gram positive bacteria = assay: MIC on Gram positive bacteria (all strains); type: cell-based
# Experimental: Bacterial suspensions are prepared from an overnight culture in Mueller-Hinton broth and are adjusted, in the same medium, to a final concentration of 5.0×10^4 cells/ml in each well of a 96-well microtiter plate. Substance dilutions (0.3 log) in Mueller-Hinton broth are added to the suspensions in order to have a range of final concentrations from 0.19 to 100 mcg/ml.
# Microtiters are then incubated at 37° C. for 18 hours. (See L. D. THRUPP, Susceptibility testing of antibiotics in liquid media, in: Antibiotics in laboratory medicine. V. LORIAN Ed., II edition, 4, 93-150, Williams & Wilkins, Baltimora, Md. 21202 U.S.A.).
# [1] = tested on: T. mentagrophytes IDI D1049; assay: Antifungal activity in experimental Tinea pedis in the guinea-pig paw; type: in vivo, Hartley guinea-pig; conditions: for A (clinical sign score) / D (clinical sign score) / E (clinical sign score): scale 0-3; for sterile samples (%) / sterile samples (n = 30), number over total: 20 days once a day, day +31
# Description: Twelve male Hartley guinea-pig (C. RIVER), weighing 350-400 gr, have been utilized (3 animals per experimental group).
# One clinical isolate (Tricophyton mentagrophytes IDI D 1049, from Immacolata Dermatological Institute of Rome) was utilized.
# Microaleuriospores were first harvested by scraping from a 7-day fungal culture grown in Potato dextrose agar, and then resuspended in Sabouraud broth with 0.5% Tween 80.
# After washing, the spores were standardized in sterile saline to yield a final concentration of 1.0×10^8 spores/ml.
# Each group included 3 animals, and only the left hind paw was inoculated. For the 2 control groups, 3 animals in total were used, as both hind paws of each animal were inoculated.
# Filter paper discs (12-mm diameter and 0.3-mm thickness) were covered with aluminum foil in the lower part to prevent the inoculum spreading. This filter was then sticked to a 1×3-cm piece of biadesive plaster, which adhered to a gauze wrapped around the paw.
# The filter paper disc was then wetted with 100 μl of the infective suspension, and subsequently fixed to the guinea-pig paw.
# The animal paw was tied up with bandage and plaster, and then left in these conditions for 7 days.
# Seven days after infection, the infected areas were uncovered and the type of lesion was graded according to an arbitrary scale, as follows:
# These "clinical" signs were examined again on days +14, +21, and +31 (day of sacrifice of animals). Three days following the first observation of the type of lesion (day +10), treatments with the differrent formulations were started, and they went on for 20 days (once a day). Two days following the last treatment (day +31), animals were sacrificed and plantar areas of the paws were dissected into 10 parts for each paw.
# These sections were plated onto Mycobiotic agar supplemented with Penicillin G and Streptomicin (100 mcg/ml). Volumes of 50 μl of both antibiotics were then added to the plantar sections to prevent any bacterial growth that might interfere with the growth of T. mentagrophytes in the samples under examination.
# The data obtained were expressed as the number of microbiologically sterile cutaneous sections over the total examined sections.
structure (smiles),measurement,setting,value
"CCCCCCCCCCCOC(=O)C[C@H](C[N+](C)(C)C)OC(=O)CC(C)C [ST 1103, isovaleryl L-carnitine undecyl ester methanesulfonate, reference compound]",activity among the known compounds,bacteria and fungi,most active both as bactericidal and fungicidal agent
same,MIC,Eubacterium lentum,3.12 µg/mL
same,MIC,Bacteroides fragilis,25 µg/mL
same,MIC,Propionibacterium acnes,6.25 µg/mL
same,MIC,yeast-like strains,2.8 µg/mL
same,MIC,"Gram positive bacteria; clinical isolates, 10 strains",3.9 µg/mL
same,MIC,"Gram positive bacteria; lab collection, 5 strains",4.06 µg/mL
"CCCCCCCCCCC(=O)O[C@H](CC(=O)OCc1ccc(COC(=O)C[C@H](C[N+](C)(C)C)OC(=O)CCCCCCCCCC)cc1)C[N+](C)(C)C [ST 1226, bis(undecanoyl L-carnitine chloride)p-xylilene diester]",MIC,Eubacterium lentum,6.25 µg/mL
same,MIC,Bacteroides fragilis,12.5 µg/mL
same,MIC,Propionibacterium acnes,6.25 µg/mL
same,microbiological recovery,[1]; 1% ST 1226,80%
same,A (clinical sign score),"[1]; 1%, 7th day",0
same,D (clinical sign score),"[1]; 1%, 7th day",0
same,E (clinical sign score),"[1]; 1%, 7th day",0
same,A (clinical sign score),"[1]; 1%, 14th day",0
same,D (clinical sign score),"[1]; 1%, 14th day",0
same,E (clinical sign score),"[1]; 1%, 14th day",0
same,A (clinical sign score),"[1]; 1%, 21st day",0
same,D (clinical sign score),"[1]; 1%, 21st day",0
same,E (clinical sign score),"[1]; 1%, 21st day",0
same,A (clinical sign score),"[1]; 1%, 31st day",0
same,D (clinical sign score),"[1]; 1%, 31st day",0
same,E (clinical sign score),"[1]; 1%, 31st day",0
same,sterile samples (%),[1]; 1%,80%
same,"sterile samples (n = 30), number over total",[1]; 1%,24/30
same,microbiological recovery,[1]; 1.5% ST 1226,100%
same,A (clinical sign score),"[1]; 1.5%, 7th day",0
same,D (clinical sign score),"[1]; 1.5%, 7th day",0
same,E (clinical sign score),"[1]; 1.5%, 7th day",0
same,A (clinical sign score),"[1]; 1.5%, 14th day",0
same,D (clinical sign score),"[1]; 1.5%, 14th day",0
same,E (clinical sign score),"[1]; 1.5%, 14th day",0
same,A (clinical sign score),"[1]; 1.5%, 21st day",0
same,D (clinical sign score),"[1]; 1.5%, 21st day",0
same,E (clinical sign score),"[1]; 1.5%, 21st day",0
same,A (clinical sign score),"[1]; 1.5%, 31st day",0
same,D (clinical sign score),"[1]; 1.5%, 31st day",0
same,E (clinical sign score),"[1]; 1.5%, 31st day",0
same,sterile samples (%),[1]; 1.5%,100%
same,"sterile samples (n = 30), number over total",[1]; 1.5%,20/20
same,MIC,yeast-like strains,2.49 µg/mL
